Reference: patent publication US9782379B2, “Use of protectin DX for the stimulation of muscular IL-6 secretion” (Universite Laval, priority 2013, dated 2017)

Tests used:
db/db mice = test: 5 days PDX treatment of db/db mice with hyperinsulinemic-isoglycemic clamp; format: in vivo
Procedure: In order to determine whether these beneficial effects of PDX could be sustained or improved with a prolonged treatment regimen, we administered 2 μg of PDX or vehicle (i.v.) twice daily to 17 week old db/db for 5 days leading up to the clamp experiment (FIGS. 10 and 11).
The hyperinsulinemic-isoglycemic clamp (FIG. 11) is the gold-standard for evaluating insulin stimulated glucose metabolism in viva Animals were fasted around 8 am (t=−300 min), and received a first injection of either PDX (2 μg/mice) or the vehicle (10% Ethanol) at t=−240 min. A second injection was given at time −90 min, after which the clamp procedure per se was started. This procedure consisted of a 90-min tracer equilibration period (t=−90 to 0 min) followed by a 120 min hyperinsulinemic isoglycemic clamp (t=0 to 120 min). A 50 μl blood sample was obtained at t=−90 min to determine radioactive-free plasma activity. A 0.5 μCi bolus of [3-3H]-glucose was given at t=−90 min followed by a 0.033 μCi/min infusion for 90 min (t=−90 to 0 min). At t=−30, -20, -10 and 0 min, blood samples were taken for the assessment of basal glucose and glucose specific activity. The insulin infusion began at t=0 min with a primed-continuous infusion of human insulin (16 mU/kg bolus followed by a 4 mU/kg/min infusion), to achieve plasma insulin concentrations 2.5-fold over basal concentrations. At t=0 min, the [3-3H]-glucose infusion was increased to 0.066 μCi/min for the remainder of the experiment to minimize changes in specific activity from the equilibration period. Isoglycemia was maintained by measuring blood glucose every 10 min starting at t=0 min and infusing 20% glucose as necessary to preserved the blood glucose at basal levels. Blood samples were taken every 10 min from t=90 to 120 min for the determination of glucose specific activity.

J77A4 macrophages = test: IL-6 release from cultured macrophages in the absence of palmitate stimulation; format: cell-based, murine
Description: (a-b) Skeletal muscle and liver IL-6 protein expression. (c) Total plasma adiponectin. (d) Immunoblots for pAMPK thr172 and total AMPK in skeletal muscle. (e) Immunoblots for pSTAT-3 ser727 and total STAT-3 in liver. Quantification of densitometry analyses for immunoblots are shown below the representative gels. In each case lanes were run on the same gel but were noncontiguous. (f-h) Relative mRNA expression for Ppargc1, Pck1 and G6Pc in liver. All genes were normalized to GAPDH using the delta delta CT method. All data are mean±SEM, n=6, *P<0.05, **P<0.01 vs Saline; ^†P<0.05, ^††P<0.01vs Lipid. (i) IL-6 in media of C2C12 myotubes exposed to PDX for 2 h. (j) IL-6 mRNA expression in C2C12 myotubes exposed to PDX for 2 h. (k) Immunoblots for pAMPK thr172 and total AMPK in C2C12 myotubes exposed to PDX for 2 h. Quantification of densitometry analyses for immunoblots are shown below the representative gels. Lanes were run on the same gel but were noncontiguous. Data are mean±SEM of three independent experiments. *P<0.05, **P<0.01 vs vehicle. (I) IL-6 in media of C2C12 myotubes exposed to Veh, or 100 nM of PDX, PD1, 8(S),15(s)-DiHETE, or RvD1. Data are mean±SEM of three independent experiments. **P<0.01 vs vehicle. (m) IL-6 in media of J77A4 macrophages treated with Veh, LPS, or PDX (10, 100, or 1000 nM) for 30 min, 2 h and 8 h. (n) Immunoblots for pAMPK thr172 and total AMPK in C2C12 myotubes exposed to PDX for 2h. Quantification of densitometry analyses for immunoblots are shown below the representative gels. Data are mean±SEM of three independent experiments. **P<0.01 vs vehicle.
In order to address the dichotomy in PDX's effect on IL-6 release from muscle versus macrophages, we next examined the impact of PDX on IL-6 release from cultured macrophages in the absence of palmitate stimulation (FIG. 5m). […] Since activation of AMPK represses inflammatory cytokine production in macrophages^19 this may explain the opposing effect of PDX on IL-6 expression and release in skeletal myotubes and activated macrophages.

[1] = tested on: genetically obese db/db mice; test: 4 mU/kg hyperinsulinemic-isoglycemic clamp in db/db mice, acute PDX; format: in vivo
Procedure: The 4 mU/kg hyperinsulinemic-isoglycemic clamp study was performed in 10 week old db/db mice from the BKS.Cg-Dock7^m+/+Lepr^db/J strain at Jackson Labs. Mice were randomly assigned to vehicle or PDX treatment groups. In preparation for the clamps mice were catheterized as described for the lipid infusion study. Mice were administered 2 ug of PDX or an equal volume of vehicle i.v. at 4 h and also 90 minutes prior to the initiation of the insulin pump. Pre-clamp glycemia was taken immediately prior to the second PDX shot. The clamp began 90 minutes later with a primed-continuous infusion of human insulin (16 mU/kg bolus followed by 4 mU·kg^−1·min^−1, Humulin R; Eli Lilly, Indianapolis, Ind.). Glycemia was maintained as close as possible to individual fasting values by infusing 20% dextrose as necessary. Blood samples were taken continuously to determine glycemia as well as insulin concentrations. Mice received saline-washed erythrocytes from donor mice throughout the experimental period (5-6 μl·min-1) to prevent a fall of ≧5% hematocrit.
We further explored the therapeutic efficacy of PDX in genetically obese db/db mice, a well-established model of T2D. Here we tested the ability of PDX to rapidly alleviate insulin resistance using a 4 mU/kg hyperinsulinemic-isoglycemic clamp (see design in FIG. 1). In these experiments, db/db mice were treated with vehicle or PDX (2 μg i.v.) 240 and 90 minutes prior to the initiation of the clamp.

For CC/C=C\C[C@H](O)/C=C/C=C\C=C\[C@@H](O)C/C=C\C/C=C\CCC(=O)O [PDX, 10S,17S-dihydroxy-docosa-4Z,7Z,11E,13Z,15E,19Z-hexaeonic acid], the total body weight (db/db mice; 2 μg PDX i.v. twice daily for 5 days vs vehicle) was “no significant changes”, the “IL6 levels in eWAT” value (db/db mice; 5 day PDX treatment) was “no such increase” and the fasting blood glucose (db/db mice; 5 day PDX treatment) was “not affected”. For the same molecule, the “plasma IL-6” value (db/db mice; 5 day PDX treatment) was “trend for increased”, the plasmatic insulin levels (db/db mice; 5 day PDX treatment) was “not affected” and the “cytokines content in the eWAT” value (db/db mice; PDX-treated vs vehicle-treated) was “no difference”. The “insulin sensitivity (glucose infusion rate, GIR)” value (db/db mice; after the 5 days PDX treatment) was “clear improvement”, the “weight of tissues (iWAT, eWAT, liver, gastrocnemius, pancreas)” value (db/db mice; end of the 5 days treatment) was “No significant changes” and the “skeletal muscle IL-6” value (db/db mice; gastrocnemius, P<0.05) was “elevated”. The AMPK phosphorylation (J77A4 macrophages; P<0.01) was “promote AMPK phosphorylation”, the “IL-6 mRNA expression” value (J77A4 macrophages; no palmitate) was “does not stimulate” and the IL-6 release (J77A4 macrophages; no palmitate, PDX 10, 100, or 1000 nM for 30 min, 2 h and 8 h) was “does not stimulate”. For the same molecule, the “lowering of pre-clamp glycemia” value ([1]; PDX 2 μg i.v. 240 and 90 minutes prior to clamp) was “did not reach statistical significance”, the “improvement of the GIR during the clamp” value ([1]; PDX 2 μg i.v. 240 and 90 minutes prior to clamp, P<0.01) was 3.6 fold and the “PGC-1α, PEPCK, and G6Pase mRNA expression in liver” value ([1]; PDX 2 μg i.v. x2) was “enhanced suppression”. For the same molecule, the “IL-6 in the skeletal muscle and plasma” value ([1]; PDX 2 μg i.v. x2, P<0.01) was “increased” and the “adipose tissue chemokines or cytokines” value ([1]; epididymal adipose tissue) was “absence of any significant anti-inflammatory impact”.
